Data as given in patent US5514694A, “Peptidyl ketoamides” (Georgia Tech Research Corp, priority 1993, dated 1996).
Like-named read-outs stand apart in the source and are kept apart here.

How the values were obtained:
Type in all cases: biochemical
[1] = molecular target: T1, Calpain I from human erythrocytes (Homo sapiens, UniProt P07384); experiment: Calpain I inhibition, Suc-Leu-Tyr-AMC hydrolysis (KI); conditions: read-out: KI Cal I
T1 construct: Calpain I was purified from human erythrocytes; from tissue; host or cells: human erythrocytes
T1 sequence (P07384 1-714): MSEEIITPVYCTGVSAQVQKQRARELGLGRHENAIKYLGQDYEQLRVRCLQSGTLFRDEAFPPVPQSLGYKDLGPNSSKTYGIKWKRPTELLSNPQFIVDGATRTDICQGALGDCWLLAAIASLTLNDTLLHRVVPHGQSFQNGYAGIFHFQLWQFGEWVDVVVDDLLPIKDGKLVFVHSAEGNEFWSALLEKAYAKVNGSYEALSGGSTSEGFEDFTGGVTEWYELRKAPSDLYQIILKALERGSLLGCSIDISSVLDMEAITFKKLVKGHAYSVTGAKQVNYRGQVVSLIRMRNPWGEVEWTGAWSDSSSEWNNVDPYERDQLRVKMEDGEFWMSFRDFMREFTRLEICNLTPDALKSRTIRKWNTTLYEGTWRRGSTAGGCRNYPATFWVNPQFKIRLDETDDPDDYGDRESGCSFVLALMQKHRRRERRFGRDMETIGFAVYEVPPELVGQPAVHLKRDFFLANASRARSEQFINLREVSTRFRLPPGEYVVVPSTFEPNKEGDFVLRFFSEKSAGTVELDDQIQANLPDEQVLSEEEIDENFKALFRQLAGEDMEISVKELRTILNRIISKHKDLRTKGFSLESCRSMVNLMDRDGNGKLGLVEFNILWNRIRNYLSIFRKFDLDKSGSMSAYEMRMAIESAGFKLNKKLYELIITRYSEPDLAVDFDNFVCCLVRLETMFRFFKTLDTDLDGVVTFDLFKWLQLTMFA
T1 sequence (P04632 1-268 partner): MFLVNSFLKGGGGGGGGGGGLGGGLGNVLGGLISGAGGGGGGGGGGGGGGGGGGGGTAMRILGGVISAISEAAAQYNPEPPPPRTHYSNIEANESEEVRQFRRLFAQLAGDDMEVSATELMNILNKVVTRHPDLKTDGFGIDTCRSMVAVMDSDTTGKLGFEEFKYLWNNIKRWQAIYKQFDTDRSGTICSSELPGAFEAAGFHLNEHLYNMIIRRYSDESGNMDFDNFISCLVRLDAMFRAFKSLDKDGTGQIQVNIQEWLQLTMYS
Procedure: (§1) HEPES, heparin, and A23187 were obtained from Calbiochem. Suc-Leu-Tyr-AMC and chromogenic substrates were obtained from Sigma. Calpain I was purified from human erythrocytes according to the method of Kitahara (Kitahara et al., J. Biochem. 95, 1759-1766) omitting the Blue-Sepharose step. Calpain II from rabbit muscle and cathepsin B were purchased from Sigma. Papain was purchased from Calbiochem.
(§2) Peptide α-ketoamides were assayed as reversible enzyme inhibitors. Various concentrations of inhibitors in Me2 SO were added to the assay mixture which contained buffer and substrate. The reaction was started by the addition of the enzyme and the hydrolysis rates were followed spectrophotometrically or fluorimetrically.
(§3) Calpain I from human erythrocytes and calpain II from rabbit were assayed using Suc-Leu-Tyr-AMC Sasaki et al., J. Biol. Chem. 259, 12489-12494 (1984); incorporated herein by reference!, and the AMC (7-amino-4-methylcoumarin) release was followed fluorimetrically (excitation at 380 nm, and emmision at 460 nm). Calpains were assayed in 25 mM Tris pH=8.0, 10 mM CaC12. Fluorescence was followed using a Gilson FL-1A fluorometer or a Perkin-Elmer 203 Fluorescence spectrometer. Cathepsin B was assayed in 20 mM sodium acetate pH=5.2, 0.5 mM dithiothreitol using Bz-Phe-Val-Arg-p-nitroanilide as substrate. Alternately, cathepsin B was assayed with Z-Arg-Arg-AFC Barrett and Kirschke, Methods Enzymol. 80, 535-561 (1981); incorporated herein by reference!, and the AFC (7-amino-4-trifluoromethylcoumarin) release was followed fluorimetrically (excitation at 400 nm and emmision at 505 nm). Papain was assayed in 100 mM KPO4, 1 mM EDTA, 2.5 mM cysteine pH=6.0 using Bz-Arg-AMC or Bz-Arg-NA Kanaoka et al., Chem. Pharm. Bull. 25, 3126-3128 (1977); incorporated herein by reference! as a substrate. The AMC (7-amino-4-methylcoumarin) release was followed fluorimetrically (excitation at 380 nm, and emmision at 460 nm). Enzymatic hydrolysis rates were measured at various substrate and inhibitor concentrations, and KI values were determined by either Lineweaver-Burk plots or Dixon plots.
(§4) A 0.1M Hepes, 0.5M NaCl, pH 7.5 buffer was utilized for human leukocyte elastase (HLE), porcine pancreatic elastase (PPE), chymotrypsin and cathepsin G. A 0.1 Hepes, 0.01 M CaCl2, pH 7.5 buffer was utilized for trypsin, plasmin, and coagulation enzymes. A 50 mM Tris.HCl, 2 mM EDTA, 5 mM cysteine, pH 7.5 was used as a buffer for papain. A 88 mM KH2 PO4, 12 mM Na2 HPO4, 1.33 mM EDTA, 2.7 mM cysteine, pH 6.0 solution was used as a buffer for cathepsin B. A 20 mM Hepes, 10 mM CaCl2, 10 mM mercatoethanol, pH 7.2 buffer was utilized for calpain I and calpain II.

calpain II from rabbit = experiment: Calpain II inhibition, Suc-Leu-Tyr-AMC hydrolysis (KI); conditions: for Ki: read-out: KI Cal II
Procedure: as §1, §2, §3, §4

cathepsin B = molecular target: T2, cathepsin B (Homo sapiens, UniProt P07858); experiment: Cathepsin B inhibition (KI); conditions: read-out: KI Cat B
T2 construct: purchased Sigma
Procedure: as §1, §2, §3, §4

[2] = Table 2, Z-Leu--AA--CONH--CH2 CH(OH)-R

Ki ([1]; Table 1, Z-Leu--AA--CONHR) [nM] | inhibition of calpain II, in words (calpain II from rabbit) | Ki (calpain II from rabbit; Table 1, Z-Leu--AA--CONHR) [nM] | Ki (cathepsin B; Table 1, Z-Leu--AA--CONHR) [nM] | Ki [1, 2] [nM] | Ki (calpain II from rabbit; [2]) [nM] | Ki (cathepsin B; [2]) [nM] | Compound
640 | best inhibitor of calpain II | 17 | 3000 |  |  |  | CCC(NC(=O)C(CC(C)C)NC(=O)OCc1ccccc1)C(=O)C(=O)NCc1ccccn1 (stereo not drawn) [Z-Leu-Abu-CONH-CH2 -2-pyridyl, Z-Leu-Abu-CONH--CH2 -2-Pyridyl]
330 |  | 66 | 4500 |  |  |  | CCC(NC(=O)C(CC(C)C)NC(=O)OCc1ccccc1)C(=O)C(=O)NCC1CCCO1 (stereo not drawn) [Z-Leu-Abu-CONH-CH2 -2-tetrahydrofuryl, Z-Leu-Abu-CONH--CH2 -2-Tetrahydrofuryl]
 | substantially poorer inhibitors | 120 | 1200 |  |  |  | CCC(NC(=O)C(CC(C)C)NC(=O)OCc1ccccc1)C(=O)C(=O)NCc1cccnc1 (stereo not drawn) [Z-Leu-Abu-CONH-CH2 -3-pyridyl, Z-Leu-Abu-CONH--CH2 -3-Pyridyl]
1100 | substantially poorer inhibitors | 110 | 6400 |  |  |  | CCC(NC(=O)C(CC(C)C)NC(=O)OCc1ccccc1)C(=O)C(=O)NCc1ccncc1 (stereo not drawn) [Z-Leu-Abu-CONH-CH2 -4-pyridyl, Z-Leu-Abu-CONH--CH2 -4-Pyridyl]
2300 |  | 22 | 1800 |  |  |  | CC[C@H](NC(=O)[C@H](CC(C)C)NC(=O)OCc1ccccc1)C(=O)C(=O)NCc1cc(OC)cc(OC)c1 [Z-Leu-Abu-CONH-CH2 C6 H3 (3,5-(OCH3)2), Z-Leu-Abu-CONH--CH2 C6 H3 (3,5-(OCH3)2]
 | best inhibitor for calpain II |  |  | 1100 | 15 | 370 | CCC(NC(=O)C(CC(C)C)NC(=O)OCc1ccccc1)C(=O)C(=O)NCC(O)c1ccccc1 (stereo not drawn) [Z-Leu-Abu-CONH-CH2 CH(OH)-Ph, Z-Leu-Abu-CONH--CH2 CH(OH)Ph]
250 |  | 100 | 4200 |  |  |  | CCCC(NC(=O)C(CC(C)C)NC(=O)OCc1ccccc1)C(=O)C(=O)NCCCN1CCOCC1 (stereo not drawn) [Z-Leu-Nva-CONH-(CH2)3 -4-morpholinyl, Z-Leu-Nva-CONH--(CH2)3 -4-Morpholinyl]
2400 |  |  | 9600 |  |  |  | CC(C)C[C@H](NC(=O)OCc1ccccc1)C(=O)NC(Cc1ccccc1)C(=O)C(=O)NCc1nccc2ccccc12 (stereo partly drawn) [Z-Leu-Phe-CONH-CH2 -1-isoquinolinyl, Z-Leu-Phe-CONH--CH2 -1-Isoquinolinyl]
 |  | 650 | 270 |  |  |  | CC(C)CC(NC(=O)OCc1ccccc1)C(=O)NC(Cc1ccccc1)C(=O)C(=O)NCc1ccccn1 (stereo not drawn) [Z-Leu-Phe-CONH-CH2 -2-pyridyl, Z-Leu-Phe-CONH--CH2 -2-Pyridyl]
110 |  | 23 | 340 |  |  |  | CC(C)CC(NC(=O)OCc1ccccc1)C(=O)NC(Cc1ccccc1)C(=O)C(=O)NCc1ccc2ccccc2n1 (stereo not drawn) [Z-Leu-Phe-CONH-CH2 -2-quinolinyl, Z-Leu-Phe-CONH--CH2 -2-Quinolinyl]
110 |  | 86 | 310 |  |  |  | Z-Leu-Abu-CONH--(CH2)2 C6 H4 (3-OCH3) [Z-Leu-Abu-CONH-(CH2)2 C6 H4 (3-OCH3)]
